Measured values taken from ChEMBL document CHEMBL1134376, “Structure-activity relationship studies of 4-[2-(diphenylmethoxy)ethyl]-1-benzylpiperidine derivatives and their N-analogues: evaluation of O-and N-analogues and their binding to monoamine transporters” (J Med Chem, 2001).

Columns and labels:
[1] = molecular target: Monoamine transporters; serotonin & dopamine (Rattus norvegicus) (UniProt P31652+P23977); experiment: Selectivity for serotonin transporter compared to dopamine transporter.; type: protein assay
Sequence of Monoamine transporters; serotonin & dopamine (Rattus norvegicus) (P23977 whole entry, looked up): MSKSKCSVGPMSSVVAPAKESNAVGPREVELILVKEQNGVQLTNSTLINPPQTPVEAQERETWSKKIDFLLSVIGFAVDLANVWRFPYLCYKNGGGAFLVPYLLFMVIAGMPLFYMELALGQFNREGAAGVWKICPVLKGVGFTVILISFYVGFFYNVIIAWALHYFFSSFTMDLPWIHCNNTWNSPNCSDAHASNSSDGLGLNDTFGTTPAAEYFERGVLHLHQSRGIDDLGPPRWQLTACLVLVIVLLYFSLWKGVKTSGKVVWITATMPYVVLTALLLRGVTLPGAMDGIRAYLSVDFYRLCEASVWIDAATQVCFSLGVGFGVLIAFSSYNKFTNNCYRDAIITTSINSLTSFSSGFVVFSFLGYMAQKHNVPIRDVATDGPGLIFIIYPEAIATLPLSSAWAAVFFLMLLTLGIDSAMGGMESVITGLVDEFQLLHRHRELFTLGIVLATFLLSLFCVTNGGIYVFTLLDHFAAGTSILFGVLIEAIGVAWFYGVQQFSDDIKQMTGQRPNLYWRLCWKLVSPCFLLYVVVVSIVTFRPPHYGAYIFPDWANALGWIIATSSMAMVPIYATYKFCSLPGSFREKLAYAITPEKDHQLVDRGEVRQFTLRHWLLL
Sequence of Monoamine transporters; serotonin & dopamine (Rattus norvegicus) (P31652 whole entry, looked up): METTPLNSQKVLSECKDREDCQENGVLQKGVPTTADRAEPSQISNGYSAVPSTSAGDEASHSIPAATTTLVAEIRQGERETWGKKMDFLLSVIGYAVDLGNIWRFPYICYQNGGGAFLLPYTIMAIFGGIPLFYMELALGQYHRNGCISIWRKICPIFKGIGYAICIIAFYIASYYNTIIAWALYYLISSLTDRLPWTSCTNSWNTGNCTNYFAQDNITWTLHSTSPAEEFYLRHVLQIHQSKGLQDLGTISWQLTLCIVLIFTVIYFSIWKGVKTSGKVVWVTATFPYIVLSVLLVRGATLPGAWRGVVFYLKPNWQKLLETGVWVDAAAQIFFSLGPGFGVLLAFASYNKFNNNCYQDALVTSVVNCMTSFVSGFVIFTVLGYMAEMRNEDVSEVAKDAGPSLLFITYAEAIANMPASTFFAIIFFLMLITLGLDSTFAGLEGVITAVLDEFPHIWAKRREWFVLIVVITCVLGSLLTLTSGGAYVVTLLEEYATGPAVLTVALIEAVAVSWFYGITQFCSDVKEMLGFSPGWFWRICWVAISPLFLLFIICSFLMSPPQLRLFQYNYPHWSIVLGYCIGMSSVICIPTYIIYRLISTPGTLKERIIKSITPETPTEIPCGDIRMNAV

[2] = molecular target: Sodium-dependent serotonin transporter (Rattus norvegicus, UniProt P31652); experiment: In vitro binding affinity at serotonin transporter in rat striatum by [3H]- citalopram displacement.; type: tissue-based
Sequence of Sodium-dependent serotonin transporter (P31652 whole entry): as the sequence (P31652 whole entry, looked up) above

Rattus norvegicus = species on record: Rattus norvegicus; experiment: Inhibition of dopamine reuptake ([3H]DA uptake) in […]; type: functional
[3] = molecular target: Norepinephrine transporter (Rattus norvegicus, UniProt Q9WTR4); experiment: Affinity at norepinephrine transporter (NET) in rat striatum, using [3H]- nisoxatine as radioligand; type: tissue-based
Sequence of Norepinephrine transporter (Q9WTR4 whole entry): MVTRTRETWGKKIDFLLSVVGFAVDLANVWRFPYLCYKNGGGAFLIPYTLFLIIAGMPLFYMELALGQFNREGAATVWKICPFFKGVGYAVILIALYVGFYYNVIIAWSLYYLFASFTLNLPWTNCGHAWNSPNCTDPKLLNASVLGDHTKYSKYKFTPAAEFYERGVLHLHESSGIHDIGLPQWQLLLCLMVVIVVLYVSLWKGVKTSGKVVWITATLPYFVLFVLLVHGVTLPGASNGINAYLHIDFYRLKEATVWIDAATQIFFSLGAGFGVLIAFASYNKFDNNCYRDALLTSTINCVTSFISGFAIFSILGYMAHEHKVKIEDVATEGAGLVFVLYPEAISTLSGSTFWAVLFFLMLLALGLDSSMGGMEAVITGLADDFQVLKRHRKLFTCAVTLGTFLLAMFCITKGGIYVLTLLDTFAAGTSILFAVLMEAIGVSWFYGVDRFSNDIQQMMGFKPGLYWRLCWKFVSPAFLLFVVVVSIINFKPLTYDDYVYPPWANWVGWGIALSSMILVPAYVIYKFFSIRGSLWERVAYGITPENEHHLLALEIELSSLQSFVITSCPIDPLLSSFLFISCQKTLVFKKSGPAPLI

[4] = molecular target: Sodium-dependent dopamine transporter (Rattus norvegicus) (UniProt P23977); experiment: Ratio of ([3H]-DA uptake) / [3H]WIN-35428 binding was determined in […]
Sequence of Sodium-dependent dopamine transporter (Rattus norvegicus) (P23977 whole entry, looked up): as the sequence (P23977 whole entry, looked up) above

[5] = molecular target: Sodium-dependent dopamine transporter (Rattus norvegicus, UniProt P23977); experiment: In vitro binding affinity at dopamine transporter in rat striatum by [3H]WIN-35428 displacement.; type: tissue-based
Sequence of Sodium-dependent dopamine transporter (P23977 whole entry): as the sequence (P23977 whole entry, looked up) above

| IC50 [2] | IC50 [5] | Compound | Ratio [1] | IC50 (Rattus norvegicus) | IC50 [3] | Ratio [4] |
| --- | --- | --- | --- | --- | --- | --- |
| – | – | Fc1cccc(CN2CCC(CCOC(c3ccccc3)c3ccccc3)CC2)c1 | 49 | – | – | – |
| – | – | N#Cc1ccc(CN2CCC(CCOC(c3ccccc3)c3ccccc3)CC2)cc1 | 615 | 4.58 nM | 342 nM | – |
| – | – | Fc1ccc(CN2CCC(CNOC(c3ccccc3)c3ccccc3)CC2)cc1 | 19 | 16.6 nM | 691 nM | 0.48 |
| – | – | CN(CC1CCN(Cc2ccc(F)cc2)CC1)CC(c1ccccc1)c1ccccc1 | 27 | – | – | – |
| – | – | CS(=O)(=O)Nc1ccc(CN2CCC(CCOC(c3ccccc3)c3ccccc3)CC2)cc1 | 22 | 9.73 nM | – | 0.36 |
| – | – | c1ccc(CN2CCC(CCNC(c3ccccc3)c3ccccc3)CC2)cc1 | – | 20.6 nM | 2620 nM | – |
| – | – | Fc1ccc(CN2CCC(CCOC(c3ccccc3)c3ccccc3)CC2)cc1F | 122 | – | 921 nM | – |
| – | – | Fc1ccc(CN2CCC(CCNC(c3ccccc3)c3ccccc3)CC2)cc1F | – | 10.7 nM | 1030 nM | – |
| – | – | Fc1ccc(CN2CCC(CCOC(c3ccccc3)c3ccccc3)CC2)cc1 | 113 | 2.48 nM | – | – |
| – | – | Fc1ccc(CN2CCC(CCNC(c3ccccc3)c3ccccc3)CC2)cc1 | 62 | 12 nM | 945 nM | 1.33 |
| – | – | FC(F)(F)c1ccc(CN2CCC(CCOC(c3ccccc3)c3ccccc3)CC2)cc1 | 71 | – | – | – |
| – | – | Fc1ccc(CN2CCC(CNCC(c3ccccc3)c3ccccc3)CC2)cc1 | 7 | 49.6 nM | 1100 nM | 2.5 |
| – | – | CC(NCCC1CCN(Cc2ccc(F)cc2)CC1)c1ccccc1 (centres undefined) | 3.2 | – | – | – |
| 1660 nM | 213 nM | CN(CCC1CCN(Cc2ccc(F)cc2)CC1)C(c1ccccc1)c1ccccc1 | 7.8 | – | – | – |
| 5860 nM | 751 nM | CC(OCCC1CCN(Cc2ccc(F)cc2)CC1)c1ccccc1 (centres undefined) | 7.8 | – | – | – |
| – | – | Fc1ccc(C(NCC2CCN(CCc3ccccc3)CC2)c2ccc(F)cc2)cc1 | 17 | – | – | – |

| Compound | IC50 [2] | IC50 [5] | Ratio [1] | IC50 (Rattus norvegicus) | IC50 [3] | Ratio [4] |
| --- | --- | --- | --- | --- | --- | --- |
| O=C(Cc1ccccc1)N1CCC(CCOC(c2ccccc2)c2ccccc2)CC1 | 13200 nM | – | 6.1 | – | – | – |
